One data set has as its target α1-adrenoceptor. The data set can be described thus: Competitive radioligand-binding assay, [3H]prazosin. Set-up: species or system rat. The method, then:
(§1) 10 mM stock solutions of test compounds were prepared in DMSO. Serial dilutions of compounds were prepared in 96-well microplate in assay buffers using an automated pipetting system epMotion 5070 (Eppendorf, Poland). Each compound was tested in 6 concentrations of 1.0E-05 to 1.0E-10 M (final concentration).
(§2) Affinity towards α1- and α2-adrenoceptors was evaluated using the competitive radioligand-binding assay. Experiments were conducted in the rat cerebral cortex. Radioligand [3H]prazosin (84,2 Ci/mmol, α1-adrenoceptor, PerkinElmer, Poland, NET823001MC) and [3H]clonidine (70.5 Ci/mmol, α2-adrenoceptor, PerkinElmer, Poland, NET613250UC) were used. The membrane preparation and the assay procedure were carried out accordingly as previously published. Radioactivity was counted on the MicroBeta2 scintillation counter (PerkinElmer, Poland). Data were fitted to a one-site curve-fitting equation with Prism 8 (GraphPad Software, USA), and Ki values were estimated from the Cheng–Prusoff equation.

The next data set has as its target T1, α2-adrenoceptor (Rattus norvegicus, UniProt P22909).
T1 sequence (P22909 1-465): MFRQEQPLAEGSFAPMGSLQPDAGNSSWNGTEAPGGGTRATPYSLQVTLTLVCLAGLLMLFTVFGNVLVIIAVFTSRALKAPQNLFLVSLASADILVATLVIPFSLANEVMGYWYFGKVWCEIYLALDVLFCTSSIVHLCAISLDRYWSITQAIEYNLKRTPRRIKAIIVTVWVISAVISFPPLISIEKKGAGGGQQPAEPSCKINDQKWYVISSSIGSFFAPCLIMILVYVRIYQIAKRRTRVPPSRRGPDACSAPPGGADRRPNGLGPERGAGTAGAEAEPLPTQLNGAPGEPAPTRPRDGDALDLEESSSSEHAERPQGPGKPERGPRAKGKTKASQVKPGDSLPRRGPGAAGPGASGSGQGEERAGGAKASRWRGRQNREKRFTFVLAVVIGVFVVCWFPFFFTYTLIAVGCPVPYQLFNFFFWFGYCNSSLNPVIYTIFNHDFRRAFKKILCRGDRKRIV
The data set is described as follows: Competitive radioligand-binding assay, [3H]clonidine. Conditions: for CPM: ADRA2, experiments 1-3, duplicates; for Affinity towards α2-adrenoceptors: summary table. The method, then:
as §1, §2

The target in the next data set is T2, α2A-adrenoceptor (Homo sapiens, UniProt P08913).
T2 sequence (P08913 1-465): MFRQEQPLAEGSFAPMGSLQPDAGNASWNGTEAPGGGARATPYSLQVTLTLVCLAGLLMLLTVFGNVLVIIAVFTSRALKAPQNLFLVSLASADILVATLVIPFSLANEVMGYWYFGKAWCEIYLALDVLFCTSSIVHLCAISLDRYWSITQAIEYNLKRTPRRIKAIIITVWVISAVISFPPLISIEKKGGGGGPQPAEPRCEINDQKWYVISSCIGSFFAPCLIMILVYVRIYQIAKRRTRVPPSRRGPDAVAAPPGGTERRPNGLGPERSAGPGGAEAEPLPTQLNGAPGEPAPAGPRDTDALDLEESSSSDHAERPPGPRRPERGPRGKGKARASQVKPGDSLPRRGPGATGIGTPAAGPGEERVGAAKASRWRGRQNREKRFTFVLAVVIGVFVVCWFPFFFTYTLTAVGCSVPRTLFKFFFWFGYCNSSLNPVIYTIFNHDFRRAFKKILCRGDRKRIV
The data set can be described thus: Intrinsic activity, Tango beta-lactamase reporter assay. It counts as cell-based. The method, then:
The intrinsic activity at α2A-adrenoceptor was assessed by the Tango assay technology that uses a mammalian-optimized beta-lactamase (bla) reporter gene combined with an FRET-enabled substrate to provide reliable and sensitive detection in cells. Cells are loaded with an engineered fluorescent substrate containing two fluorophores, coumarin, and fluorescein. In the absence of bla expression, the substrate molecule remains intact. In this state, excitation of the coumarin results in a transfer of fluorescence resonance energy to the fluorescein moiety and emission of green fluorescent light. However, in the presence of bla expression, the substrate is cleaved, separating the fluorophores and disrupting energy transfer. Excitation of the coumarin in the presence of bla enzyme activity results in a blue fluorescence signal.
Intrinsic activity assay was performed according to the manufacturer of the assay kit (Invitrogen, Life Technologies). Cells were harvested and resuspended in an assay medium at a density of 312,500 cells/ml. 32 μL per well of cell suspension was added to the test compound wells, the unstimulated control wells, and the stimulated control wells, and incubated for 16–24 h. To perform an agonist assay, 8 μL of 5 × of agonist in the assay medium was added to the cells. […] Then, the agonist and antagonist plates were incubated in a humidified incubator at 37 °C/5% CO2 for 5 h. After the incubation, 8 μL of LiveBLAzer™-FRET B/G substrate mixture (CCF4-AM) was loaded into cells in the absence of direct strong lighting, covered, and incubated at room temperature for 2 h.

For data set [1] the following is noted: 5 mg/kg b.w., i.p.; cited from earlier work.
Data set [2] is described as follows: Blood pressure of anaesthetized normotensive rats. Type of data set: in vivo, rat. Conditions: thiopental-anaesthetized rats. The method, then:
Eighteen normotensive rats were anaesthetized with thiopental (70 mg/kg) by ip injection. The left carotid artery was cannulated with tubing filled with heparin solution in saline to facilitate pressure measurements using Apparatus PowerLab 4/35 (ADInstruments, Australia). Blood pressure was measured: before ip administration of 4-OH-Guanabenz at the doses of 2 or 5 or 10 mg/kg b.w. or water – time 0 min (control pressure) and continuously during the next 60 min.

Where [3] appears, read: [3H] prazosin, rat cerebral cortex, mean ± SEM, n = 3, read-out: Ki.
[4] abbreviates: ADRAA2A, agonist, concentration 1e-8.
Where [5] appears, read: ADRAA2A, agonist, concentration 1e-7.
[6] abbreviates: ADRAA2A, agonist, concentration 1e-6.

Each structure is given as a SMILES string. “And” between values parts separate entries of the source, which are not always exact repeats. Equal entries are not always repeated. Where two headings read alike, the source gives them in different places.

Regarding `N=C(N)N/N=C/c1c(Cl)cccc1Cl` [Guanabenz], the Ki was 0.259 µM and 0.25 µM and 0.251 µM at α1-adrenoceptor (ADRA1, experiment 1, 2, 3, read-out: Ki, single experiments); 0.253 µM at α1-adrenoceptor (setting [3]). In addition, the “Affinity towards α1-adrenoceptors” value in the data set on α1-adrenoceptor (summary table) is listed as “+”. The CPM at α2-adrenoceptor (log of molar concentration -6) is 89 CPM and 117 CPM and 99 CPM and 116 CPM and 125 CPM and 115 CPM; at α2-adrenoceptor (log of molar concentration -7), 120 CPM and 135 CPM and 148 CPM and 196 CPM and 133 CPM; on α2-adrenoceptor (log of molar concentration -8), 152 CPM and 165 CPM and 205 CPM and 265 CPM and 170 CPM; on α2-adrenoceptor (log of molar concentration -10) it was 320 CPM and 325 CPM and 437 CPM and 458 CPM and 265 CPM and 270 CPM. Further, the “Affinity towards α2-adrenoceptors” value at α2-adrenoceptor is given as “+”. In addition, the “Intrinsic activity at α2A-adrenoceptors (in words)” value at α2A-adrenoceptor is given as “Full agonist”. The “% of max response” value on α2A-adrenoceptor (ADRAA2A, agonist, concentration 1e-11) was -0.6454% and -0.8183% and -1.252% and -0.7319%; at α2A-adrenoceptor (ADRAA2A, agonist, concentration 1e-10) it was -1.12% and -1.114% and -1.036% and -1.117%; at α2A-adrenoceptor (ADRAA2A, agonist, concentration 1e-9) it was 0.5496% and 0.2076% and -0.728% and 0.3786%; at α2A-adrenoceptor (setting [4]), 28.3106% and 18.1657% and 31.6251%; at α2A-adrenoceptor (setting [5]) it was 69.7622% and 66.4917% and 70.9692%; at α2A-adrenoceptor (setting [6]) it was 80.6636% and 82.7247% and 76.4282%. In addition, the Emax on α2A-adrenoceptor (ADRAA2A, agonist, concentration 1e-8, read-out: % of max response) was 34.9%; on α2A-adrenoceptor (ADRAA2A, agonist, concentration 1e-7, read-out: % of max response) it was 72.2%; on α2A-adrenoceptor (ADRAA2A, agonist, concentration 1e-6, read-out: % of max response) it was 72.2%. Moreover, the Core temperature entry in data set [1] is “↓ [17]”.

As for `Cl.N=C(N)NN=Cc1c(Cl)cc(O)cc1Cl` [4-OH-Guanabenz, 2-[(2,6-Dichloro-4-hydroxyphenyl)methylene]hydrazinecarboximidamide Hydrochloride], the Ki at α1-adrenoceptor (setting [3]) was determined as 3.86 ± 1.01 µM. For the same molecule, the “affinity toward α2-adrenoreceptor (in words)” value on α2-adrenoceptor is “high affinity”. Besides, the CPM on α2-adrenoceptor (log of molar concentration -5) was 78 CPM and 116 CPM and 96 CPM and 117 CPM and 113 CPM and 111 CPM; on α2-adrenoceptor (log of molar concentration -6), 132 CPM and 157 CPM and 112 CPM and 131 CPM and 141 CPM; on α2-adrenoceptor (log of molar concentration -7), 198 CPM and 156 CPM and 131 CPM and 190 CPM and 205 CPM; on α2-adrenoceptor (log of molar concentration -8) it was 314 CPM and 316 CPM and 394 CPM and 302 CPM and 300 CPM; on α2-adrenoceptor (log of molar concentration -9), 420 CPM and 340 CPM and 383 CPM and 296 CPM and 320 CPM and 437 CPM; on α2-adrenoceptor (log of molar concentration -10), 404 CPM and 380 CPM and 358 CPM and 403 CPM and 400 CPM and 370 CPM. Besides, on α2-adrenoceptor, the “Affinity towards α2-adrenoceptors” value is “+”. Further, on α2A-adrenoceptor, the “Intrinsic activity at α2A-adrenoceptors (in words)” value is given as “Partial agonist”. For the same molecule, the “% of max response” value on α2A-adrenoceptor (setting [4]) was -0.7437% and -0.7189% and -0.7313% and -0.7282%; on α2A-adrenoceptor (setting [5]), 2.887% and 2.799% and 3.482%; at α2A-adrenoceptor (setting [6]), 33.4463% and 31.1405% and 34.9698%; at α2A-adrenoceptor (ADRAA2A, agonist, concentration 1e-5), 37.4215% and 35.9932% and 36.5487%. This molecule had an EC50 at α2A-adrenoceptor (agonist assay) of 0.316 µM. Also, the “activity relative to full agonist brimonidine” value on α2A-adrenoceptor (agonist assay, maximal activity reached) is given as 30%. Moreover, the Emax was 2.71% at α2A-adrenoceptor (read-out: % of max response, ADRAA2A, agonist, concentration 1e-7); 28.8% at α2A-adrenoceptor (read-out: % of max response, ADRAA2A, agonist, concentration 1e-6); 34.6% at α2A-adrenoceptor (read-out: % of max response, ADRAA2A, agonist, concentration 1e-5). Besides, the “effect on diastolic pressure (in words)” value in data set [2] (10 mg/kg b.w., 10th minute after administration) is “short-term increase”. The “effect on blood pressure (in words)” value in data set [2] (single dose 2 or 5 mg/kg b.w., vs water) is on record as “not significantly different”.

The values are drawn from paper PMC10539439 (Pharmacological Reports, 2023).
